Measured values taken from patent publication US9365604B2, “Oligomer-nucleoside phosphate conjugates” (NEKTAR THERAPEUTICS, priority 2007, dated 2016).

Legend:
DU145 = assay: Sulforhodamine B (SRB) growth inhibition assay; assay type: cell-based, Human; conditions: for ratio vs flox (GI50) DU145: GI50 of conjugate vs floxuridine; for GI50: SRB assay, cells exposed for 24 h, read-out: GI50 values (μM) DU145
Method: (§1) The aim was to determine the GI50 values for PEG-floxuridine conjugates against a panel of cell lines, and based on previous data from Xenograft studies. […] The test articles were solubilized in dimethylsulfoxide and were tested at four different molar (M) concentrations; 10^−4, 10^−5, 10^−6, M. GI50 (the concentration needed to reduce the growth of treated cells to half that of untreated control cells) was calculated for each condition ([(Ti−Tz)/(C-Tz)]×100=50, where Ti, Tz, and C refer to absorbance values obtained from each tested concentration, time zero, and control treatment, respectively).
as §1, with “The objective” for “The aim”, “the IC50” for “the GI50”, “for PEG-gemcitabine” for “for PEG-floxuridine”, “in dimethyl sulfoxide” for “in dimethylsulfoxide”, “10^−6, 10^−7” for “10^−6,”, “condition ([(Ti−Tz)/(C−Tz)]×100=50,” for “condition ([(Ti−Tz)/(C-Tz)]×100=50,”

HT29 = assay: Sulforhodamine B (SRB) growth inhibition assay; assay type: cell-based, Human; conditions: for ratio vs flox (GI50) HT29: GI50 of conjugate vs floxuridine; for GI50: SRB assay, cells exposed for 24 h, read-out: GI50 values (μM) HT29
Method: (§2) In Vitro Screening of PEG-Gemcitabine Monophosphate in Selected Human Cancer Cell Lines
as §1
as §1, with “The objective” for “The aim”, “the IC50” for “the GI50”, “for PEG-gemcitabine” for “for PEG-floxuridine”, “in dimethyl sulfoxide” for “in dimethylsulfoxide”, “10^−6, 10^−7” for “10^−6,”, “condition ([(Ti−Tz)/(C−Tz)]×100=50,” for “condition ([(Ti−Tz)/(C-Tz)]×100=50,”

MCF7 = assay: Sulforhodamine B (SRB) growth inhibition assay; assay type: cell-based, Human; conditions: for ratio vs flox (GI50) MCF7: GI50 of conjugate vs floxuridine; for GI50: SRB assay, cells exposed for 24 h, read-out: GI50 values (μM) MCF7
Method: as §2, §1
as §1, with “The objective” for “The aim”, “the IC50” for “the GI50”, “for PEG-gemcitabine” for “for PEG-floxuridine”, “in dimethyl sulfoxide” for “in dimethylsulfoxide”, “10^−6, 10^−7” for “10^−6,”, “condition ([(Ti−Tz)/(C−Tz)]×100=50,” for “condition ([(Ti−Tz)/(C-Tz)]×100=50,”

Hop62 = assay: Sulforhodamine B (SRB) growth inhibition assay; assay type: cell-based, Human; conditions: for ratio vs flox (GI50) Hop62: GI50 of conjugate vs floxuridine; for GI50: SRB assay, cells exposed for 24 h, read-out: GI50 values (μM) Hop62
Method: as §2, §1
as §1, with “The objective” for “The aim”, “the IC50” for “the GI50”, “for PEG-gemcitabine” for “for PEG-floxuridine”, “in dimethyl sulfoxide” for “in dimethylsulfoxide”, “10^−6, 10^−7” for “10^−6,”, “condition ([(Ti−Tz)/(C−Tz)]×100=50,” for “condition ([(Ti−Tz)/(C-Tz)]×100=50,”

A2780 = assay: Sulforhodamine B (SRB) growth inhibition assay; assay type: cell-based, Human; conditions: for ratio vs flox (GI50) A2780: GI50 of conjugate vs floxuridine; for GI50: SRB assay, cells exposed for 24 h, read-out: GI50 values (μM) A2780
Method: as §2, §1
as §1, with “The objective” for “The aim”, “the IC50” for “the GI50”, “for PEG-gemcitabine” for “for PEG-floxuridine”, “in dimethyl sulfoxide” for “in dimethylsulfoxide”, “10^−6, 10^−7” for “10^−6,”, “condition ([(Ti−Tz)/(C−Tz)]×100=50,” for “condition ([(Ti−Tz)/(C-Tz)]×100=50,”

PANC-1 = conditions: Zajchowski et al. 2005; cited from earlier work

Row | Compound | ratio vs flox (GI50) DU145 (DU145) | GI50 (DU145) [µM] | ratio vs flox (GI50) HT29 (HT29) | GI50 (HT29) [µM] | ratio vs flox (GI50) MCF7 (MCF7) | GI50 (MCF7) [µM] | ratio vs flox (GI50) Hop62 (Hop62) | GI50 (Hop62) [µM] | ratio vs flox (GI50) A2780 (A2780) | GI50 (A2780) [µM] | resistance of PANC-1 in vitro (shown previously) (PANC-1)
1 | COCCOCCOCCOCCOCCOCCOCCOP(=O)(OCCOCCOCCOCCOCCOCCOCCOC)OC[C@H]1O[C@@H](n2cc(F)c(=O)[nH]c2=O)C[C@@H]1O [Floxuridine Di (mPEG7), 5′-floxuridine di-methoxy hepta(ethylene glycol) phosphate] | 4 | > 100 | 4 | > 100 | 667 | > 100 | 417 | > 100 | 1538 | > 100 | –
2 | Nc1ccn([C@@H]2S[C@H](CO)[C@@H](O)[C@@H]2F)c(=O)n1 [4′-thio-FAC] | – | – | – | – | – | – | – | – | – | – | resistant
3 | COCCOCCOCCOP(=O)(OCCOCCOCCOC)OC[C@H]1O[C@@H](n2cc(F)c(=O)[nH]c2=O)C[C@@H]1O [Floxuridine Di (mPEG3), 5′-floxuridine di-methoxy tri(ethylene glycol) phosphate] | 4 | > 100 | 4 | > 100 | 667 | > 100 | 417 | > 100 | 1538 | > 100 | –
